Where two headings read alike, the source gives them in different places.
Assays:
GABA-T [1] = biological target: T1, GABA-T (Rattus norvegicus, UniProt P50554); assay: GABA-T inhibition in vitro, colorimetric screen in control rat brain homogenate; assay type: biochemical
T1 construct: Brain homogenate from control rats was pre-incubated with the drug of interest; from tissue; host or cells: rat (male Sprague-Dawley) whole brain homogenate
Procedure: (§1) A modification of the colorimetric method of Sethi^49 was used in the initial in vitro screen. Brain homogenate from control rats was pre-incubated with the drug of interest and an incubation buffer before conducting the assay. In the ex vivo study of homogenates from brains of rats treated with the analogs, GABA-T activity was measured using the radiochemical procedure of Sterri and Fonnum.^20 Briefly, homogenates were incubated with radiolabelled GABA in a buffer containing pyridoxal phosphate and the resultant products were isolated using a liquid anion exchanger (tri-n-octylamine). Radioactivity (dpm) was counted using a Beckman LS 7500 liquid scintillation spectrometer.

GABA-T [2] = biological target: T1, GABA-T; assay: GABA-T activity ex vivo in brain homogenates of drug-treated rats (radiochemical); settings: i.p., equimolar doses (PEH 30 mg/kg, 7p 47 mg/kg, 8p 38.5 mg/kg)
Procedure: (§2) Male Sprague-Dawley rats (approximately 300 g) were pair-housed in polycarbonate cages with free access to food (Purina Rat Chow) and water, and were maintained on a 12-hour light-dark cycle (lights on at 0800). All animal procedures were approved by the University of Alberta Biosciences Animal Policy and Welfare Committee, and were carried out in accordance with the guidelines of the Canadian Council on Animal Care.
(§3) In the ex vivo studies, animals were injected intraperitoneally with equimolar amounts of PEH (30 mg/kg), 7p (47 mg/kg) or 8p (38.5 mg/kg) or vehicle (corn oil) and were killed by decapitation 3, 6 or 12 hours following drug administration. Brains were rapidly removed and flash-frozen in 2-methylbutane on solid carbon dioxide, and were stored at −80° C. Subsequently, partially-thawed brains were homogenized in 5 volumes of ice-cold distilled water, and stored in aliquots at -80° C. for use in subsequent analyses (GABA-T, MAO-A, MAO-B, and brain levels of amino acids) after addition to the appropriate buffer medium.
as §1

MAO-A [3] = biological target: T2, MAO-A (Rattus norvegicus, UniProt P21396); assay: MAO-A inhibition in vitro in control rat brain homogenate (14C-5-hydroxytryptamine substrate); assay type: biochemical
T2 construct: from tissue; host or cells: rat (male Sprague-Dawley) whole brain homogenate
T2 sequence (P21396 1-526): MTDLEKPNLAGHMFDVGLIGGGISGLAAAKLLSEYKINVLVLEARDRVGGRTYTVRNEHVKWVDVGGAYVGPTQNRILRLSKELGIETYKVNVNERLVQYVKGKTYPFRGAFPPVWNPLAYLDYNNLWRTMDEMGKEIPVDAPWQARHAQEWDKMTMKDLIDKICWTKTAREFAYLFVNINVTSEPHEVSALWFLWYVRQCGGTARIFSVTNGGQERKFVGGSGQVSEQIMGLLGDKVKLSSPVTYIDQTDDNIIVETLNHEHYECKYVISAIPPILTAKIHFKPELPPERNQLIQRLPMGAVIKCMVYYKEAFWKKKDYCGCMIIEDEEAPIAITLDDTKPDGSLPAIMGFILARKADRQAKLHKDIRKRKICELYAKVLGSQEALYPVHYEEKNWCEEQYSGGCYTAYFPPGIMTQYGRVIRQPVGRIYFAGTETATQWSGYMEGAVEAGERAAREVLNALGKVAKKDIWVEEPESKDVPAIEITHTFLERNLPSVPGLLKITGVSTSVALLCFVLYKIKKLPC
Procedure: (§4) Monoamine oxidase activity was determined using a modified protocol described by Lyles and Callingham.^51 In the in vitro studies, the drugs were pre-incubated with control rat brain homogenate prior to conducting the assay. Briefly, tissue homogenate was diluted in KH2PO4 (0.2M), and an aliquot (50 μl) was incubated with the appropriate radiolabelled substrates (^14C-labelled 5-hydroxytryptamine and β-phenylethylamine were used as substrates for MAO-A and -B respectively). The reaction products were extracted by a mixture of ethyl acetate and toluene (1:1 v/v), and a portion of the top layer was added to a vial containing scintillation fluid for radioactivity measurement. Radioactivity (dpm) was counted using a Beckman LS 7500 liquid scintillation spectrometer.

MAO-B [4] = biological target: T3, MAO-B (Rattus norvegicus, UniProt P19643); assay: MAO-B inhibition in vitro in control rat brain homogenate (14C-β-phenylethylamine substrate); assay type: biochemical
T3 construct: the drugs were pre-incubated with control rat brain homogenate prior to conducting the assay; from tissue; host or cells: rat (male Sprague-Dawley) whole brain homogenate
T3 sequence (P19643 1-520): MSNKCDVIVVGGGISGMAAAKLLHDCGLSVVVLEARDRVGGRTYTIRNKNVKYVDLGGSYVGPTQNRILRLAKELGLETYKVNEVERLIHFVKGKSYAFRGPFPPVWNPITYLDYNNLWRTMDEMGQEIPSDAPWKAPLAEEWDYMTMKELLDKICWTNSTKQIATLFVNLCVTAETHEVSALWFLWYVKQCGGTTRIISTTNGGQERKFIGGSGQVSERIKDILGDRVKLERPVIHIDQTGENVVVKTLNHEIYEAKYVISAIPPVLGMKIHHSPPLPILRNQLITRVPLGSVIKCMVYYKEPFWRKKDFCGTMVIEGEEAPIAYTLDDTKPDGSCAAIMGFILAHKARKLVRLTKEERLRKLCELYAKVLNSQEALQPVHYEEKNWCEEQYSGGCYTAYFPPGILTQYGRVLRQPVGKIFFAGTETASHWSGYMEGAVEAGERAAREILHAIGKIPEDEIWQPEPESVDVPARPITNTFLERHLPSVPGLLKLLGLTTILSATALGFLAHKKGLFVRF
Procedure: as §4

MAO-A [5] = biological target: T2, MAO-A; assay: MAO-A activity ex vivo in brain tissue of drug-treated rats; settings: for effect on MAO-A activity ex vivo: time points tested 3, 6, 12 hours, i.p., equimolar doses (PEH 30 mg/kg, 7p 47 mg/kg, 8p 38.5 mg/kg); for MAO-A activity ex vivo / MAO-A inhibition ex vivo: 8p 38.5 mg/kg i.p.
Procedure: as §2, §3, §4

MAO-B [6] = biological target: T3, MAO-B; assay: MAO-B activity ex vivo in brain tissue of drug-treated rats; settings: i.p.; for effect on MAO-B activity ex vivo: time points tested 3, 6, 12 hours, equimolar doses (PEH 30 mg/kg, 7p 47 mg/kg, 8p 38.5 mg/kg); for MAO-B activity ex vivo: 7p 47 mg/kg, 8p 38.5 mg/kg
Procedure: as §2, §3, §4

[7] = test system: brain levels of amino acids (GABA, glutamate, alanine and glycine); assay type: in vivo; settings: rat whole brain; for effect on brain GABA levels / effect on brain alanine levels / effect on brain glutamate levels / effect on brain glycine levels: 3, 6, 12 hours, i.p., equimolar doses (PEH 30 mg/kg, 7p 47 mg/kg, 8p 38.5 mg/kg)
Procedure: as §2, §3
Amino acid levels (GABA, glutamate, alanine and glycine) were determined using a modified procedure previously described by Grant and colleagues^52 for the quantification of amino acids using HPLC combined with fluorescence detection, following derivatization with fluoraldehyde reagent [o-phthaldialdehyde (OPA)] and isobutyryl-L-cysteine (IBLC). Briefly, a portion of the homogenate (100 μl) was added to ice-cold methanol (400 μl), re-homogenized and centrifuged (13,000 g, 4° C.). The supernatants were further diluted by a factor of 2 in ice-cold water, and transferred to HPLC vials. A portion of the supernatant (5 μl) was reacted with OPA/IBLC (5 μl) in the injection loop of a Waters Alliance 2690XE system for 1.5 minutes before injection onto the analytical column (Symmetry C18 5 μm (4.6×150 mm)), connected to a Symmetry C18 guard column, held at 30° C. A Waters 474 fluorescence detector was set to an excitation wavelength of 344 nm and an emission wavelength of 443 nm. Data were collected and analyzed using the Empower Pro software package (Waters).

[8] = rat brain homogenate, mean±SEM, n=4
[9] = 3 hours following injection, PEH 30 mg/kg i.p.
[10] = 6 hours following drug injection
[11] = 12 hours following drug injection
[12] = 3 hours following drug administration
[13] = 6 hours following drug administration

T1 sequence (P50554 28-500): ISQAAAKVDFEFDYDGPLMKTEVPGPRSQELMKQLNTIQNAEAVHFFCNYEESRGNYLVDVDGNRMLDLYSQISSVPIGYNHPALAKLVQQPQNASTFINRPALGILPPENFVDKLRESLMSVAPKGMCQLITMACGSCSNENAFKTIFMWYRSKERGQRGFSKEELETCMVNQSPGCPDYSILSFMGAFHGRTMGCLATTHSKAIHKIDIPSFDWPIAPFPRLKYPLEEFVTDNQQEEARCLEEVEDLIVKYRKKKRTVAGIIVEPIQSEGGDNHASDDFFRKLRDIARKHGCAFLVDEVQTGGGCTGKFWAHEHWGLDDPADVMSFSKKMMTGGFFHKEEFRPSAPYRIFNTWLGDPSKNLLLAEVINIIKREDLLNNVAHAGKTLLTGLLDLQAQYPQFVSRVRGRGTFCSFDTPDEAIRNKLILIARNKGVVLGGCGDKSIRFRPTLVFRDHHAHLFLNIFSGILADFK

NN=CCc1ccccc1 [PEH, β-Phenylethylidenehydrazine]
inhibition at 10 µM (GABA-T [1]): ~50%
GABA-T activity ex vivo (GABA-T [2]; 3 hours post-injection): 66 % of control
GABA-T activity ex vivo (GABA-T [2]; 6 hours post-injection): 66 % of control
GABA-T activity ex vivo (GABA-T [2]; 12 hours post-injection): 70 % of control
inhibition of MAO-A in vitro (MAO-A [3]; [8]): 26.7±3.1%
inhibition of MAO-B in vitro (MAO-B [4]; [8]): 14.9±6.6%
effect on MAO-A activity ex vivo (MAO-A [5]): did not alter the activity of either MAO-A or -B
effect on MAO-B activity ex vivo (MAO-B [6]): did not alter the activity of either MAO-A or -B
effect on brain GABA levels [7]: increased brain GABA and alanine levels
effect on brain alanine levels [7]: increased brain GABA and alanine levels
effect on brain glutamate levels [7]: did not significantly alter brain glutamate or glycine levels
effect on brain glycine levels [7]: did not significantly alter brain glutamate or glycine levels
brain GABA level [7, 9]: 418 % of control
brain alanine level [7, 9]: 489 % of control

C#CCN(CC#C)/N=C/Cc1ccccc1 [7p]
GABA-T activity ex vivo (GABA-T [2]; 3 hours post-injection): 86 % of control
GABA-T activity ex vivo (GABA-T [2]; 6 hours post-injection): 86 % of control
GABA-T activity ex vivo (GABA-T [2]; 12 hours post-injection): not significantly different from control values
inhibition of MAO-A in vitro (MAO-A [3]; concentration of 10 μM): neither 7p nor 8p caused any inhibition of MAO-A or -B
inhibition of MAO-B in vitro (MAO-B [4]; concentration of 10 μM): neither 7p nor 8p caused any inhibition of MAO-A or -B
effect on MAO-A activity ex vivo (MAO-A [5]): did not significantly alter MAO-A activity at any time point tested
MAO-B activity ex vivo (MAO-B [6]; [10]): 58 % of control
MAO-B activity ex vivo (MAO-B [6]; [11]): 25 % of control
effect on MAO-B activity ex vivo (MAO-B [6]): significantly reducing MAO-B activity at all time points tested
effect on brain GABA levels [7]: did not significantly alter the levels of GABA, alanine or glutamate at any time point tested
effect on brain alanine levels [7]: did not significantly alter the levels of GABA, alanine or glutamate at any time point tested
effect on brain glutamate levels [7]: did not significantly alter the levels of GABA, alanine or glutamate at any time point tested
effect on brain glycine levels [7]: increased glycine at 3, 6 and 12 hours post-injection
brain glycine level ([7]; 12 hours post-injection, 7p 47 mg/kg i.p.): 248 % of control

C#CCNN=CCc1ccccc1 [8p, (E)- and (Z)-N-(2-Propynyl)-2-(phenyl)ethylidene]hydrazines]
GABA-T activity ex vivo (GABA-T [2]; 3 hours post-injection): 76 % of control
GABA-T activity ex vivo (GABA-T [2]; 6 hours post-injection): 77 % of control
GABA-T activity ex vivo (GABA-T [2]; 12 hours post-injection): not significantly different from control values
inhibition of MAO-A in vitro (MAO-A [3]; concentration of 10 μM): neither 7p nor 8p caused any inhibition of MAO-A or -B
inhibition of MAO-B in vitro (MAO-B [4]; concentration of 10 μM): neither 7p nor 8p caused any inhibition of MAO-A or -B
MAO-A activity ex vivo (MAO-A [5]; [12]): 78 % of control
MAO-A inhibition ex vivo (MAO-A [5]; [12]): 22%
MAO-A activity ex vivo (MAO-A [5]; [13]): 70 % of control
MAO-A inhibition ex vivo (MAO-A [5]; [13]): 30%
effect on MAO-A activity ex vivo (MAO-A [5]): weak, transient effect on MAO-A
MAO-B activity ex vivo (MAO-B [6]; [10]): 24 % of control
MAO-B activity ex vivo (MAO-B [6]; [11]): 29 % of control
effect on MAO-B activity ex vivo (MAO-B [6]): significantly reducing MAO-B activity at all time points tested
effect on brain GABA levels [7]: did not significantly alter the levels of GABA, alanine or glutamate at any time point tested
effect on brain alanine levels [7]: did not significantly alter the levels of GABA, alanine or glutamate at any time point tested
effect on brain glutamate levels [7]: did not significantly alter the levels of GABA, alanine or glutamate at any time point tested
effect on brain glycine levels [7]: significantly increased glycine at 3 and 6 hours post-injection
brain glycine level ([7]; 6 hours post-injection, 8p 38.5 mg/kg i.p.): 216 % of control

NNCCc1ccccc1 [PLZ, phenelzine, reference compound]
inhibition of MAO-A in vitro (MAO-A [3]; [8]): greater than 95%
inhibition of MAO-B in vitro (MAO-B [4]; [8]): greater than 95%

— patent publication US8501995B2, “β-phenylethylidenehydrazine derivatives” (The Governors of the University of Alberta, priority 2009, dated 2013)
